Measured values published in ChEMBL document CHEMBL4732026, “Benzimidazole-1,2,3-triazole hybrid molecules: synthesis and study of their interaction with G-quadruplex DNA” (RSC Med Chem, 2021).
Activity calls are given as the source filed them. The calls are words filed in the database; no cut-off is given here.

Assays:
CHO-K1 [1] = test: Cytotoxicity against […] cells assessed as reduction in cell viability measured after 72 hrs by MTT assay; assay type: cell-based; conditions: Cricetulus griseus, CHO-K1, 72 h
PC-3 [2] = test: Cytotoxicity against human PC3 cells assessed as reduction in cell viability measured after 72 hrs by MTT assay; assay type: functional, cell-based; conditions: PC-3, 72 h
B16-F10 = test: Cytotoxicity against mouse B16-F10 cells assessed as reduction in cell viability measured after 72 hrs by MTT assay; assay type: functional, cell-based; conditions: B16-F10, 72 h
PC-3 [3] = test: Induction of apoptosis in human PC-3 cells assessed as necrotic cells at 98 uM after 48 hrs by Annexin V based flow cytometric analysis (reference value: 0.79%); assay type: functional
PC-3 [4] = test: Induction of apoptosis in human PC-3 cells assessed as late apoptic cells at 91 uM after 48 hrs by Annexin V based flow cytometric analysis (reference value: 9.24%); assay type: functional
CHO-K1 [5] = test: Induction of apoptosis in CHO-K1 cells assessed as early apoptic cells at 63 uM after 48 hrs by Annexin V based flow cytometric analysis (reference value: 4.58%); assay type: cell-based, Cricetulus griseus; conditions: chinese hamster, cho-k1, 48 h
PC-3 [6] = test: Induction of apoptosis in human PC-3 cells assessed as early apoptic cells at 98 uM after 48 hrs by Annexin V based flow cytometric analysis (reference value: 0.40%); assay type: functional
PC-3 [7] = test: Induction of apoptosis in human PC-3 cells assessed as early apoptic cells at 91 uM after 48 hrs by Annexin V based flow cytometric analysis (reference value: 0.40%); assay type: functional
CHO-K1 [8] = test: Induction of apoptosis in CHO-K1 cells assessed as necrotic cells at 60 uM after 48 hrs by Annexin V based flow cytometric analysis (reference value: 0.70%); assay type: cell-based, Cricetulus griseus; conditions: chinese hamster, cho-k1, 48 h
CHO-K1 [9] = test: Induction of apoptosis in CHO-K1 cells assessed as early apoptic cells at 60 uM after 48 hrs by Annexin V based flow cytometric analysis (reference value: 4.58%); assay type: cell-based, Cricetulus griseus; conditions: chinese hamster, cho-k1, 48 h
CHO-K1 [10] = test: Induction of reactive oxygen species generation in CHO-K1 cells after 48 hrs by DCFH-DA staining based flow cytometeric analysis; assay type: cell-based, Cricetulus griseus; conditions: chinese hamster, cho-k1, 48 h
PC-3 [11] = test: Induction of apoptosis in human PC-3 cells assessed as necrotic cells at 91 uM after 48 hrs by Annexin V based flow cytometric analysis (reference value: 0.79%); assay type: functional
PC-3 [12] = test: Induction of apoptosis in human PC-3 cells assessed as viable cells at 91 uM after 48 hrs by Annexin V based flow cytometric analysis (reference value: 89.57%); assay type: functional; conditions: read-out: Activity
[13] = Induction of apoptosis in CHO-K1 cells assessed as viable cells at 63 uM after 48 hrs by Annexin V based flow cytometric analysis (reference value: 93.71%); assay type: cell-based, Cricetulus griseus; conditions: chinese hamster, read-out: Activity
[14] = Induction of apoptosis in CHO-K1 cells assessed as viable cells at 60 uM after 48 hrs by Annexin V based flow cytometric analysis (reference value: 93.71%); assay type: cell-based, Cricetulus griseus; conditions: chinese hamster, read-out: Activity
CHO-K1 [15] = test: Induction of apoptosis in CHO-K1 cells assessed as necrotic cells at 63 uM after 48 hrs by Annexin V based flow cytometric analysis (reference value: 0.70%); assay type: cell-based, Cricetulus griseus; conditions: chinese hamster, cho-k1, 48 h
PC-3 [16] = test: Induction of apoptosis in human PC-3 cells assessed as apoptotic cells at 98 uM incubated for 48 hrs by AnnexinV based flow cytometric analysis (reference value: 10.43%); assay type: functional
PC-3 [17] = test: Induction of apoptosis in human PC-3 cells assessed as late apoptic cells at 98 uM after 48 hrs by Annexin V based flow cytometric analysis (reference value: 9.24%); assay type: functional
CHO-K1 [18] = test: Induction of apoptosis in CHO-K1 cells assessed as apoptic cells at 60 uM after 48 hrs by Annexin V based flow cytometric analysis (reference value: 6.29%); assay type: cell-based, Cricetulus griseus; conditions: chinese hamster, cho-k1, 48 h
CHO-K1 [19] = test: Induction of apoptosis in CHO-K1 cells assessed as apoptic cells at 63 uM after 48 hrs by Annexin V based flow cytometric analysis (reference value: 6.29%); assay type: cell-based, Cricetulus griseus; conditions: chinese hamster, cho-k1, 48 h
CHO-K1 [20] = test: Induction of apoptosis in CHO-K1 cells assessed as late apoptic cells at 63 uM after 48 hrs by Annexin V based flow cytometric analysis (reference value: 1.01%); assay type: cell-based, Cricetulus griseus; conditions: chinese hamster, cho-k1, 48 h
CHO-K1 [21] = test: Induction of apoptosis in CHO-K1 cells assessed as late apoptic cells at 60 uM after 48 hrs by Annexin V based flow cytometric analysis (reference value: 1.01%); assay type: cell-based, Cricetulus griseus; conditions: chinese hamster, cho-k1, 48 h
PC-3 [22] = test: Induction of apoptosis in human PC-3 cells assessed as apoptotic cells at 91 uM incubated for 48 hrs by AnnexinV based flow cytometric analysis (reference value: 10.43%); assay type: functional
PC-3 [23] = test: Induction of apoptosis in human PC-3 cells assessed as viable cells at 98 uM after 48 hrs by Annexin V based flow cytometric analysis (reference value: 89.57%); assay type: functional; conditions: read-out: Activity
dsDNA [24] = test: Binding affinity to double strand DNA (unknown origin) assessed as hyperchromicity at 10.3 uM incubated for 5 mins by UV- vis spectrophotometric analysis; assay type: nucleic-acid assay
dsDNA [25] = test: Binding affinity to double strand DNA (unknown origin) assessed as dissociation constant incubated for 5 mins by UV- vis spectrophotometric analysis; assay type: nucleic-acid assay
dsDNA [26] = test: Binding affinity to double strand DNA (unknown origin) assessed as increase in fluorescence intensity at 10.3 uM incubated for 5 mins by spectrofluorometric analysis; assay type: nucleic-acid assay
dsDNA [27] = test: Binding affinity to double strand DNA (unknown origin) assessed as hypsochromic shift at 10.3 uM incubated for 5 mins by UV- vis spectrophotometric analysis; assay type: nucleic-acid assay
Quadruplex DNA [28] = test: Binding affinity to c-Myc G-quadruplex DNA (unknown origin) assessed as hypsochromic shift at 10.3 uM incubated for 5 mins by UV- vis spectrophotometric analysis; assay type: nucleic-acid assay
Quadruplex DNA [29] = test: Binding affinity to c-Myc G-quadruplex DNA (unknown origin) assessed as increase in fluorescence intensity at 8.5 uM incubated for 5 mins by spectrofluorometric analysis; assay type: nucleic-acid assay
Quadruplex DNA [30] = test: Binding affinity to Tel Q G-quadruplex DNA (unknown origin) assessed as hypsochromic shift at 10.3 uM incubated for 5 mins by UV- vis spectrophotometric analysis; assay type: nucleic-acid assay
Quadruplex DNA [31] = test: Binding affinity to c-Myc G-quadruplex DNA (unknown origin) assessed as hyperchromicity at 10.3 uM incubated for 5 mins by UV- vis spectrophotometric analysis; assay type: nucleic-acid assay
Quadruplex DNA [32] = test: Binding affinity to c-Myc G-quadruplex DNA (unknown origin) assessed as increase in fluorescence intensity at 10.3 uM incubated for 5 mins by spectrofluorometric analysis; assay type: nucleic-acid assay
Quadruplex DNA [33] = test: Binding affinity to Tel Q G-quadruplex DNA (unknown origin) assessed as increase in fluorescence intensity at 8.5 uM incubated for 5 mins by spectrofluorometric analysis; assay type: nucleic-acid assay
dsDNA [34] = test: Stabilization of double strand DNA (unknown origin) assessed as change in melting temperature at 10.3 uM incubated for 5 mins by UV-visible thermal denaturation study; assay type: nucleic-acid assay
Quadruplex DNA [35] = test: Binding affinity to Tel Q G-quadruplex DNA (unknown origin) assessed as increase in fluorescence intensity at 10.3 uM incubated for 5 mins by spectrofluorometric analysis; assay type: nucleic-acid assay
Quadruplex DNA [36] = test: Binding affinity to Tel Q G-quadruplex DNA (unknown origin) assessed as hyperchromicity at 10.3 uM incubated for 5 mins by UV- vis spectrophotometric analysis; assay type: nucleic-acid assay
dsDNA [37] = test: Binding affinity to double strand DNA (unknown origin) assessed as increase in fluorescence intensity at 8.5 uM incubated for 5 mins by spectrofluorometric analysis; assay type: nucleic-acid assay
Quadruplex DNA [38] = test: Stabilization of Tel Q G-quadruplex DNA (unknown origin) assessed as change in melting temperature at 10.3 uM incubated for 5 mins by UV-visible thermal denaturation study; assay type: nucleic-acid assay
Quadruplex DNA [39] = test: Binding affinity to c-Myc G-quadruplex DNA (unknown origin) assessed as dissociation constant incubated for 5 mins by UV- vis spectrophotometric analysis; assay type: nucleic-acid assay
Quadruplex DNA [40] = test: Stabilization of c-Myc G-quadruplex DNA (unknown origin) assessed as change in melting temperature at 10.3 uM incubated for 5 mins by UV-visible thermal denaturation study; assay type: nucleic-acid assay
Quadruplex DNA [41] = test: Binding affinity to Tel Q G-quadruplex DNA (unknown origin) assessed as dissociation constant incubated for 5 mins by UV- vis spectrophotometric analysis; assay type: nucleic-acid assay

Compound: O=C(Cn1cc(CSc2nc3cc(OC(F)F)ccc3[nH]2)nn1)Nc1cccc(Cl)c1
- IC50 (CHO-K1 [1]): 115 µM
- IC50 (PC-3 [2]): 136 µM
- IC50 (B16-F10): 135 µM

Compound: Fc1ccc(-n2cc(CSc3nc4cc(OC(F)F)ccc4[nH]3)nn2)cc1F
- IC50 (CHO-K1 [1]): 56.1 µM
- IC50 (PC-3 [2]): 65.2 µM
- IC50 (B16-F10): 56.8 µM

Compound: C[n+]1ccc(-c2c3nc(c(-c4cc[n+](C)cc4)c4ccc([nH]4)c(-c4cc[n+](C)cc4)c4ccc([nH]4)c(-c4cc[n+](C)cc4)c4nc2C=C4)C=C3)cc1 [TMPYP4]
- IC50 (CHO-K1 [1]): 61.4 µM
- Activity (PC-3 [3]): 14.36%
- Activity (PC-3 [4]): 18.01%
- Activity (CHO-K1 [5]): 18.87%
- Activity (PC-3 [6]): 0.9%
- Activity (PC-3 [7]): 4.41%
- Activity (CHO-K1 [8]): 0.95%
- Activity (CHO-K1 [9]): 13.72%
- Activity (CHO-K1 [10]): Non-Toxic
- Activity (PC-3 [11]): 2.38%
- viability at 91 µM (PC-3 [12]): 75.2%
- viability at 48 h, 63 µM [13]: 75.2%
- viability at 48 h, 60 µM [14]: 81.9%
- Activity (CHO-K1 [15]): 1.31%
- Activity (PC-3 [16]): 48.7%
- Activity (PC-3 [17]): 33.44%
- Activity (CHO-K1 [18]): 18.06%
- Activity (CHO-K1 [19]): 24.84%
- Activity (CHO-K1 [20]): 4.66%
- Activity (CHO-K1 [21]): 3.39%
- Activity (PC-3 [22]): 24.8%
- viability at 98 µM (PC-3 [23]): 51.3%
- IC50 (PC-3 [2]): 94.8 µM
- IC50 (B16-F10): 77 µM

Compound: Cc1c(NC(=O)Cn2cc(CSc3nc4cc(OC(F)F)ccc4[nH]3)nn2)cccc1[N+](=O)[O-]
- IC50 (CHO-K1 [1]): 62.2 µM
- IC50 (PC-3 [2]): 66.2 µM
- IC50 (B16-F10): 103 µM

Compound: FC(F)Oc1ccc2[nH]c(SCc3cn(-c4cccc(Cl)c4Cl)nn3)nc2c1
- IC50 (CHO-K1 [1]): 85 µM
- IC50 (PC-3 [2]): 69.8 µM
- IC50 (B16-F10): 90.5 µM

Compound: O=[N+]([O-])c1ccc(-n2cc(CSc3nc4cc(OC(F)F)ccc4[nH]3)nn2)cc1
- Activity (dsDNA [24]): 15.9%
- IC50 (CHO-K1 [1]): 100 µM
- Kd (dsDNA [25]): 191 µM
- Activity (dsDNA [26]): Active
- Activity (dsDNA [27]): 1.6 nm
- Activity (Quadruplex DNA [28]): 0.6 nm
- Activity (Quadruplex DNA [29]): Active
- Activity (Quadruplex DNA [30]): 2.9 nm
- Activity (Quadruplex DNA [31]): 11.7%
- Activity (Quadruplex DNA [32]): Active
- Activity (Quadruplex DNA [33]): Active
- ΔTm (dsDNA [34]): 0 °C
- Activity (Quadruplex DNA [35]): Active
- Activity (Quadruplex DNA [36]): 31.4%
- Activity (dsDNA [37]): Active
- ΔTm (Quadruplex DNA [38]): 9 °C
- Kd (Quadruplex DNA [39]): 79.2 µM
- IC50 (PC-3 [2]): 59.2 µM
- ΔTm (Quadruplex DNA [40]): -5 °C
- IC50 (B16-F10): 203 µM
- Kd (Quadruplex DNA [41]): 87.3 µM
